Laboratory results published in patent EP4806446A2.
Like-named read-outs stand apart in the source and are kept apart here.

Settings: ester bond, DCM

CCn1c(-c2cc(N3CCN(C4CC4)CC3)cnc2[C@H](C)OC)c2c3cc(ccc31)-c1csc(n1)C[C@H](NC(=O)OC(C)(C)C)C(=O)N(C)NCC(=O)OCC(C)(C)C2
ring closure, yield of all isomers (from CCn1c(-c2cc(N3CCN(C4CC4)CC3)cnc2[C@H](C)OC)c(CC(C)(C)CO)c2cc(-c3csc(C[C@H](NC(=O)OC(C)(C)C)C(=O)N(C)NCC(=O)O)n3)ccc21, PyBOP/DMAP, 5.9 mM, 0.0 °C, 1.0 h): 27%

CCn1c(-c2cc(N3CCN(C4CC4)CC3)cnc2[C@H](C)OC)c2c3cc(ccc31)-c1nnc(o1)C[C@H](NC(=O)OCc1ccccc1)C(=O)N1N[C@H](C(=O)OCC(C)(C)C2)C2CC1C2
ring closure, yield of all isomers (from CCn1c(-c2cc(N3CCN(C4CC4)CC3)cnc2[C@H](C)OC)c(CC(C)(C)CO)c2cc(-c3nnc(C[C@H](NC(=O)OCc4ccccc4)C(=O)N4N[C@H](C(=O)O)C5CC4C5)o3)ccc21, PyBOP, DMAP, 6.64 mM, 25.0 °C, 16.0 h, 2 steps): 29%

CCn1c(-c2cccnc2[C@H](C)OC)c2c3cc(ccc31)N1CCO[C@@H](C[C@H](NC(=O)OC(C)(C)C)C(=O)N(C)NCC(=O)OCC(C)(C)C2)C1
ring closure, yield of all isomers (from CCn1c(-c2cccnc2[C@H](C)OC)c(CC(C)(C)CO)c2cc(N3CCO[C@@H](C[C@H](NC(=O)OC(C)(C)C)C(=O)N(C)NCC(=O)O)C3)ccc21, EDCI/HOBt, DIEA, 6.5 mM, 25.0 °C, 16.0 h): 44%

CCn1c(-c2cc(N3CCN(C)CC3)cnc2[C@H](C)OC)c2c3cc(ccc31)-c1csc(n1)C[C@H](NC(=O)OC(C)(C)C)C(=O)N(C)NCC(=O)OCC(C)(C)C2
ring closure, yield of all isomers (from CCn1c(-c2cc(N3CCN(C)CC3)cnc2[C@H](C)OC)c(CC(C)(C)CO)c2cc(-c3csc(C[C@H](NC(=O)OC(C)(C)C)C(=O)N(C)NCC(=O)O)n3)ccc21, PyBOP/DMAP, 0.81 mM, 0.0 °C, 1.0 h): 42%

CCn1c(-c2cccnc2[C@H](C)OC)c2c3cc(ccc31)N1CCO[C@@H](C[C@H](NC(=O)OC(C)(C)C)C(=O)N3N[C@H](C(=O)OCC(C)(C)C2)C2CC3C2)C1
ring closure, yield of all isomers (from CCn1c(-c2cccnc2[C@H](C)OC)c(CC(C)(C)CO)c2cc(N3CCO[C@@H](C[C@H](NC(=O)OC(C)(C)C)C(=O)N4N[C@H](C(=O)O)C5CC4C5)C3)ccc21, PyBOP, DMAP, 2.6 mM, 25.0 °C, 16.0 h): 96.2%

CCn1c(-c2cc(N3CCN(C)CC3)cnc2[C@H](C)OC)c2c3cc(ccc31)-c1csc(n1)C[C@H](NC(=O)OC(C)(C)C)C(=O)N1N[C@H](C(=O)OCC(C)(C)C2)C2CC1C2
ring closure, yield of all isomers (from CCn1c(-c2cc(N3CCN(C)CC3)cnc2[C@H](C)OC)c(CC(C)(C)CO)c2cc(-c3csc(C[C@H](NC(=O)OC(C)(C)C)C(=O)N4N[C@H](C(=O)O)C5CC4C5)n3)ccc21, PyBOP/DMAP, 5.8 mM, 25.0 °C, 5.0 h): 48.8%

CCn1c(-c2cc(N3CCN(C(=O)OCc4ccccc4)CC3)cnc2[C@H](C)OC)c2c3cc(ccc31)-c1csc(n1)C[C@H](NC(=O)OC(C)(C)C)C(=O)N(C)NCC(=O)OCC(C)(C)C2
ring closure, yield of all isomers (from CCn1c(-c2cc(N3CCN(C(=O)OCc4ccccc4)CC3)cnc2[C@H](C)OC)c(CC(C)(C)CO)c2cc(-c3csc(C[C@H](NC(=O)OC(C)(C)C)C(=O)N(C)NCC(=O)O)n3)ccc21, EDCI/HOBt/DIEA, 4.25 mM, 25.0 °C, 16.0 h): 38.2%

CCn1c(-c2cc(N3CCN(C(=O)OCc4ccccc4)CC3)cnc2[C@H](C)OC)c2c3cc(ccc31)-c1cccc(c1)C[C@H](NC(=O)OC(C)(C)C)C(=O)N1N[C@H](C(=O)OCC(C)(C)C2)C2CC1C2
ring closure, yield of all isomers (from CCn1c(-c2cc(N3CCN(C(=O)OCc4ccccc4)CC3)cnc2[C@H](C)OC)c(CC(C)(C)CO)c2cc(-c3cccc(C[C@H](NC(=O)OC(C)(C)C)C(=O)N4N[C@H](C(=O)O)C5CC4C5)c3)ccc21, EDCI/HOBt/DIEA, 6.0 mM, 25.0 °C, 16.0 h): 27%

CCn1c(-c2cc(N3CCN(C(=O)OCc4ccccc4)CC3)cnc2[C@H](C)OC)c2c3cc(ccc31)-c1csc(n1)C[C@H](NC(=O)OC(C)(C)C)C(=O)N1N[C@@H](C(=O)OCC(C)(C)C2)C2CC1C2
ring closure, yield of all isomers (from CCn1c(-c2cc(N3CCN(C(=O)OCc4ccccc4)CC3)cnc2[C@H](C)OC)c(CC(C)(C)CO)c2cc(-c3csc(C[C@H](NC(=O)OC(C)(C)C)C(=O)N4N[C@@H](C(=O)O)C5CC4C5)n3)ccc21, EDCI/HOBt/DIEA, 5.2 mM, 35.0 °C): 49%

CCn1c(-c2cc(N3CCN(C(=O)OCc4ccccc4)CC3)cnc2[C@H](C)OC)c2c3cc(ccc31)N1CCO[C@@H](C[C@H](NC(=O)OC(C)(C)C)C(=O)N3N[C@H](C(=O)OCC(C)(C)C2)C2CC3C2)C1
ring closure, yield of all isomers (from CCn1c(-c2cc(N3CCN(C(=O)OCc4ccccc4)CC3)cnc2[C@H](C)OC)c(CC(C)(C)CO)c2cc(N3CCO[C@@H](C[C@H](NC(=O)OC(C)(C)C)C(=O)N4N[C@H](C(=O)O)C5CC4C5)C3)ccc21, PyBOP/DMAP, 9.8 mM, 35.0 °C, 0.5 h): 16%

C=C[C@@H]1CCN2N[C@@H]1C(=O)OCC(C)(C)Cc1c(-c3cc(N4CCN(C(=O)OCc5ccccc5)CC4)cnc3[C@H](C)OC)n(CC)c3ccc(cc13)-c1csc(n1)C[C@H](NC(=O)OC(C)(C)C)C2=O
ring closure, yield of all isomers (from C=C[C@@H]1CCN(C(=O)[C@H](Cc2nc(-c3ccc4c(c3)c(CC(C)(C)CO)c(-c3cc(N5CCN(C(=O)OCc6ccccc6)CC5)cnc3[C@H](C)OC)n4CC)cs2)NC(=O)OC(C)(C)C)N[C@@H]1C(=O)O, EDCI/HOBt/DIEA, 10.0 mM, 25.0 °C, 16.0 h): 36.7%
